Measurements from patent publication US20210395262A1, “INHIBITORS OF HUMAN IMMUNODEFICIENCY VIRUS REPLICATION” (ViiV HEALTHCARE UK (NO.5) LIMITED, priority 2018, published 2021).

How the values were obtained:
[1] = Compound cytotoxicity, XTT-based colorimetric assay; format: cell-based; conditions: human; uninfected MT2 cells, day 4, XTT; read-out: CC50
Method: Compound cytotoxicity and the corresponding CC50 values were determined using the same protocol as described in the antiviral assay except that uninfected cells were used. Cytotoxicity was assessed on day 4 in uninfected MT2 cells by using a XTT (2,3-bis[2-Methoxy-4-nitro-5-sulfophenyl]-2H-tetrazolium-5-carboxyanilide inner salt)-based colorimetric assay (Sigma-Aldrich, St Louis, Mo.).

recombinant NL4-3 virus = experiment: HIV cell culture assay (antiviral activity, luciferase readout in MT-2 cells); format: cell-based; conditions: Human immunodeficiency virus 1, NL43, MT2
Method: HIV cell culture assay—MT-2 cells, 293T cells and the proviral DNA clone of NL4-3 virus were obtained from the […] AIDS Research and Reference Reagent Program. MT-2 cells were propagated in RPMI 1640 media supplemented with 10% heat inactivated fetal bovine serum (FBS), […] penicillin G and up to 100 units/mL streptomycin. The 293T cells were propagated in DMEM media supplemented with 10% heat inactivated FBS, […] penicillin G and […] streptomycin. A recombinant NL4-3 proviral clone, in which a section of the nef gene was replaced with the Renilla luciferase gene, was used to make the reference virus used in these studies. The recombinant virus was prepared through transfection of the recombinant NL4-3 proviral clone into 293T cells using Transit-293 Transfection Reagent from Mirus Bio LLC (Madison, Wis.). Supernatent was harvested after 2-3 days and the amount of virus present was titered in MT-2 cells using luciferase enzyme activity as a marker by measuring luciferase enzyme activity. Luciferase was quantitated using the EnduRen Live Cell Substrate from Promega (Madison, Wis.). Antiviral activities of compounds toward the recombinant virus were quantified by measuring luciferase activity in MT-2 cells infected for 4-5 days with the recombinant virus in the presence of serial dilutions of the compound.
The 50% effective concentration (EC50) was calculated by using the exponential form of the median effect equation where (Fa)=1/[1+(ED50/drug conc.)m] (Johnson V A, Byington R T. Infectivity Assay. In Techniques in HIV Research. ed. Aldovini A, Walker B D. 71-76. New York: Stockton Press. 1990). The 50% inhibitory concentration (EC50) was calculated by using the exponential form of the median effect equation where percent inhibition=1/[1+(EC50/drug concentration)m], where m is a parameter that reflects the slope of the concentration-response curve.

SMILES | CC50 at 4 days [1] [nM] | EC50 (recombinant NL4-3 virus) [nM]
Cn1nc(NS(C)(=O)=O)c2c(Cl)ccc(-n3c([C@H](Cc4cc(F)cc(F)c4)NC(=O)Cn4nc(C(F)F)c5c4C(F)(F)[C@@H]4C[C@H]54)nc4cc(N5CCCCC5)ccc4c3=O)c21 (atropisomer, axis not shown; (P)) [Example 14, N—((S)-1-((3P)-3-(4-chloro-1-methyl-3-(methylsulfonamido)-1H-indazol-7-yl)-4-oxo-7-(piperidin-1-yl)-3,4-dihydroquinazolin-2-yl)-2-(3,5-difluorophenyl)ethyl)-2-((3bS,4aR)-3-(difluoromethyl)-5,5-difluoro-3b,4,4a,5-tetrahydro-1H-cyclopropa[3,4]cyclopenta[1,2-c]pyrazol-1-yl)acetamide] | > 1000 | 0.242
C[C@@H]1CN(c2ccc3c(=O)n(-c4ccc(Cl)c5c(NS(C)(=O)=O)nn(C)c45)c([C@H](Cc4cc(F)cc(F)c4)NC(=O)Cn4nc(C(F)F)c5c4C(F)(F)[C@@H]4C[C@H]54)nc3c2)C[C@H](C)O1 (atropisomer, axis not shown; (P)) [Example 15, N—((S)-1-((3P)-3-(4-chloro-1-methyl-3-(methylsulfonamido)-1H-indazol-7-yl)-7-((2S,6R)-2,6-dimethylmorpholino)-4-oxo-3,4-dihydroquinazolin-2-yl)-2-(3,5-difluorophenyl)ethyl)-2-((3bS,4aR)-3-(difluoromethyl)-5,5-difluoro-3b,4,4a,5-tetrahydro-1H-cyclopropa[3,4]cyclopenta[1,2-c]pyrazol-1-yl)acetamide] | > 10000 | 0.035
C[C@@H]1CN(c2ccc3c(=O)n(-c4ccc(Cl)c5c(NS(C)(=O)=O)nn(C)c45)c([C@H](Cc4cc(F)cc(F)c4)NC(=O)Cn4nc(C(F)F)c5c4C(F)(F)[C@@H]4C[C@H]54)nc3c2)C[C@H](C)N1C (atropisomer, axis not shown; (P)) [Example 16, N—((S)-1-((3P)-3-(4-chloro-1-methyl-3-(methylsulfonamido)-1H-indazol-7-yl)-4-oxo-7-((3S,5R)-3,4,5-trimethylpiperazin-1-yl)-3,4-dihydroquinazolin-2-yl)-2-(3,5-difluorophenyl)ethyl)-2-((3bS,4aR)-3-(difluoromethyl)-5,5-difluoro-3b,4,4a,5-tetrahydro-1H-cyclopropa[3,4]cyclopenta[1,2-c]pyrazol-1-yl)acetamide] | > 1000 | 0.08
Cn1nc(NS(C)(=O)=O)c2c(Cl)ccc(-n3c([C@H](Cc4cc(F)cc(F)c4)NC(=O)Cn4nc(C(F)F)c5c4C(F)(F)[C@@H]4C[C@H]54)nc4cc(N5CCCOCC5)ccc4c3=O)c21 (atropisomer, axis not shown; (P)) [Example 17, N—((S)-1-((3P)-3-(4-chloro-1-methyl-3-(methylsulfonamido)-1H-indazol-7-yl)-7-(1,4-oxazepan-4-yl)-4-oxo-3,4-dihydroquinazolin-2-yl)-2-(3,5-difluorophenyl)ethyl)-2-((3bS,4aR)-3-(difluoromethyl)-5,5-difluoro-3b,4,4a,5-tetrahydro-1H-cyclopropa[3,4]cyclopenta[1,2-c]pyrazol-1-yl)acetamide] | > 1000 | 0.069
Cn1nc(NS(C)(=O)=O)c2c(Cl)ccc(-n3c([C@H](Cc4cc(F)cc(F)c4)NC(=O)Cn4nc(C(F)F)c5c4C(F)(F)[C@@H]4C[C@H]54)nc4cc(N5CCC5)ccc4c3=O)c21 (atropisomer, axis not shown; (P)) [Example 18, N—((S)-1-(7-(azetidin-1-yl)-(3P)-3-(4-chloro-1-methyl-3-(methylsulfonamido)-1H-indazol-7-yl)-4-oxo-3,4-dihydroquinazolin-2-yl)-2-(3,5-difluorophenyl)ethyl)-2-((3bS,4aR)-3-(difluoromethyl)-5,5-difluoro-3b,4,4a,5-tetrahydro-1H-cyclopropa[3,4]cyclopenta[1,2-c]pyrazol-1-yl)acetamide] | > 1000 | 0.066
Cn1nc(NS(C)(=O)=O)c2c(Cl)ccc(-n3c([C@H](Cc4cc(F)cc(F)c4)NC(=O)Cn4nc(C(F)F)c5c4C(F)(F)[C@@H]4C[C@H]54)nc4cc(N5CCCC5)ccc4c3=O)c21 (atropisomer, axis not shown; (P)) [Example 19, N—((S)-1-((3P)-3-(4-chloro-1-methyl-3-(methylsulfonamido)-1H-indazol-7-yl)-4-oxo-7-(pyrrolidin-1-yl)-3,4-dihydroquinazolin-2-yl)-2-(3,5-difluorophenyl)ethyl)-2-((3bS,4aR)-3-(difluoromethyl)-5,5-difluoro-3b,4,4a,5-tetrahydro-1H-cyclopropa[3,4]cyclopenta[1,2-c]pyrazol-1-yl)acetamide] | > 1000 | 0.222
Cn1nc(NS(C)(=O)=O)c2c(Cl)ccc(-n3c([C@H](Cc4cc(F)cc(F)c4)NC(=O)Cn4nc(C(F)F)c5c4C(F)(F)[C@@H]4C[C@H]54)nc4cc(NCc5ccccc5)ccc4c3=O)c21 (atropisomer, axis not shown; (P)) [Example 20, N—((S)-1-(7-(benzylamino)-(3P)-3-(4-chloro-1-methyl-3-(methylsulfonamido)-1H-indazol-7-yl)-4-oxo-3,4-dihydroquinazolin-2-yl)-2-(3,5-difluorophenyl)ethyl)-2-((3bS,4aR)-3-(difluoromethyl)-5,5-difluoro-3b,4,4a,5-tetrahydro-1H-cyclopropa[3,4]cyclopenta[1,2-c]pyrazol-1-yl)acetamide] | > 1000 | 0.38
Cn1nc(NS(C)(=O)=O)c2c(Cl)ccc(-n3c([C@H](Cc4cc(F)cc(F)c4)NC(=O)Cn4nc(C(F)F)c5c4C(F)(F)[C@@H]4C[C@H]54)nc4cc(N5CC6(COC6)C5)ccc4c3=O)c21 (atropisomer, axis not shown; (P)) [Example 21, N—((S)-1-((3P)-3-(4-chloro-1-methyl-3-(methylsulfonamido)-1H-indazol-7-yl)-4-oxo-7-(2-oxa-6-azaspiro[3.3]heptan-6-yl)-3,4-dihydroquinazolin-2-yl)-2-(3,5-difluorophenyl)ethyl)-2-((3bS,4aR)-3-(difluoromethyl)-5,5-difluoro-3b,4,4a,5-tetrahydro-1H-cyclopropa[3,4]cyclopenta[1,2-c]pyrazol-1-yl)acetamide] | > 500 | 0.064
Cn1nc(NS(C)(=O)=O)c2c(Cl)ccc(-n3c([C@H](Cc4cc(F)cc(F)c4)NC(=O)Cn4nc(C(F)F)c5c4C(F)(F)[C@@H]4C[C@H]54)nc4cc(N5CCC(O)CC5)ccc4c3=O)c21 (atropisomer, axis not shown; (P)) [Example 24, N—((S)-1-((3P)-3-(4-chloro-1-methyl-3-(methylsulfonamido)-1H-indazol-7-yl)-7-(4-hydroxypiperidin-1-yl)-4-oxo-3,4-dihydroquinazolin-2-yl)-2-(3,5-difluorophenyl)ethyl)-2-((3bS,4aR)-3-(difluoromethyl)-5,5-difluoro-3b,4,4a,5-tetrahydro-1H-cyclopropa[3,4]cyclopenta[1,2-c]pyrazol-1-yl)acetamide] | > 500 | 0.118
Cn1nc(NS(C)(=O)=O)c2c(Cl)ccc(-n3c([C@H](Cc4cc(F)cc(F)c4)NC(=O)Cn4nc(C(F)F)c5c4C(F)(F)[C@@H]4C[C@H]54)nc4cc(N5CCC6(CC5)COC6)ccc4c3=O)c21 (atropisomer, axis not shown; (P)) [Example 25, N—((S)-1-((3P)-3-(4-chloro-1-methyl-3-(methylsulfonamido)-1H-indazol-7-yl)-4-oxo-7-(2-oxa-7-azaspiro[3.5]nonan-7-yl)-3,4-dihydroquinazolin-2-yl)-2-(3,5-difluorophenyl)ethyl)-2-((3bS,4aR)-3-(difluoromethyl)-5,5-difluoro-3b,4,4a,5-tetrahydro-1H-cyclopropa[3,4]cyclopenta[1,2-c]pyrazol-1-yl)acetamide] | > 500 | 0.095
Cn1nc(NS(C)(=O)=O)c2c(Cl)ccc(-n3c([C@H](Cc4cc(F)cc(F)c4)NC(=O)Cn4nc(C(F)F)c5c4C(F)(F)[C@@H]4C[C@H]54)nc4cc(N5CC(S(C)(=O)=O)C5)ccc4c3=O)c21 (atropisomer, axis not shown; (P)) [Example 26, N—((S)-1-((3P)-3-(4-chloro-1-methyl-3-(methylsulfonamido)-1H-indazol-7-yl)-7-(3-(methylsulfonyl)azetidin-1-yl)-4-oxo-3,4-dihydroquinazolin-2-yl)-2-(3,5-difluorophenyl)ethyl)-2-((3bS,4aR)-3-(difluoromethyl)-5,5-difluoro-3b,4,4a,5-tetrahydro-1H-cyclopropa[3,4]cyclopenta[1,2-c]pyrazol-1-yl)acetamide] | > 500 | 0.295
